From paper PMC7251123, “CX-5461 activates the DNA damage response and demonstrates therapeutic efficacy in high-grade serous ovarian cancer” (Nature Communications, 2020)

Legend:
[1] = test system: panel of 32 established human OVCA cell lines; test: Cell proliferation dose response (IncuCyte ZOOM), 48 h, whole panel; format: cell-based; conditions: 32 OVCA cell lines, threshold for sensitive, read-out: geometric median of GI50
Procedure: The in vitro effects of CX-5461 on human OVCA cells were evaluated using a panel of 32 established human OVCA cell lines. These cell lines were selected to be representative of a range of histologic OVCA subtypes (Supplementary Table 1). Increasing concentrations (1 nM–10 μM) of CX-5461 were used to assess the concentration of drug that induced a 50% reduction in cell proliferation (GI50) at 48 hours (h). […] There was no statistically significant correlation between TP53 mutation status and sensitivity to CX-5461 (Supplementary Table 1, Fig. 1b). The efficacy of growth inhibition by CX-5461 correlated with a higher rate of basal rDNA transcription in the sensitive compared with the resistant OVCA cell lines (Fig. 1c).
Fig. 1 Sensitivity of ovarian cancer (OVCA) cell lines to CX-5461. a CX-5461 doses that induce 50% growth inhibition (GI50) at 48 hours. Error bars represent mean ± standard deviation (SD). […]
For assessing OVCA cells’ sensitivity to CX-5461, dose response curves were generated for each cell line by plating cells in 96-well plates, culturing them for 24 hours and then treating them with either vehicle or increasing concentrations of drug (0, 0.001, 0.003, 0.01, 0.03, 0.1, 0.3, 1, 3, 10 and 30 μM CX-5461) for 48 h. Cell number was assessed using the IncuCyte ZOOM imaging system (Essen BioScience). […] During this time the degree of confluency was measured every 24 h. […]

[2] = set-up: method as in PMID 31092402; conditions: Phase I CX-5461 dose escalation study ref 16; cited from earlier work
OVCAR4 cells = test: Mini drug screen, proliferation by DAPI staining and Cellomics imaging; format: cell-based, human; conditions: OVCAR4
Excerpt: Since CX-5461 in combination with BMN-673 lead to increased DNA damage, we hypothesized that combining CX-5461 with PARPi or other DNA repair and DDR inhibitors (DDR therapy) may improve the efficacy of treating HGSOC. We therefore performed a focused/boutique drug screen in the HR-proficient OVCAR4 cells for DNA repair and DDR inhibitors that may cooperate with CX-5461 to enhance growth arrest (Fig. 8a). […] We next examined the cooperation between CX-5461 and BMN-673 or ATRi in inducing cell death in three additional HR-proficient HGSOC cell lines (Supplementary Fig. 3C) and identified robust and significant interactions between BMN-673 and CX-5461 in inducing cell death compared with the ATRi (VE-821) (Fig. 8b). In addition, dose-response curves of BMN-673 in the presence or absence of CX-5461 confirmed CX-5461’s strong interaction with BMN-673 (Fig. 8c).
Colour-coding denotes the level of proliferation as measured by DAPI staining and imaging using Cellomics (green denotes reduced proliferation). Dose response of single drug treatments were corrected for vehicle control and the combination was corrected for response to 80 nM CX-5461, the average values of n = 5 are presented. The combination of CX-5461 with BMN-673 or ATRi is highlighted by yellow boxes. b Quantitation of SubG1 DNA content by PI staining of cells treated with vehicle, 100 nM CX-5461, 1 μM VE-821, 100 nM BMN-673 or in combination for 7 days (n = 3 biologically independent experiments). Error bars represent mean ± SEM. Flow cytometry gating strategy is shown in Supplementary Fig. 3D. C) Representative BMN-673 dose response curves ± 30 nM CX-5461. Cell proliferation was measured using SRB assays at 5 days post-treatment. Dose response curves for BMN-673 were corrected for DMSO treatment control and the combination was corrected for response to 30 nM CX-5461. Representative of three biological replicates. Error bars represent mean ± SEM of n = 5 technical replicates. d BrdU cell cycle analysis of cells treated with vehicle, 1 μM CX-5461, 100 nM BMN-673 or in combination for 72 h as described in Fig. 3b and Supplementary Fig. 3D. n = 3, mean ± SEM. e In vitro proliferation time-course assessed by cell confluency using IncuCyte ZOOM. Representative of n = 3 biological replicates, mean ± SEM of five technical replicates. Dashed lines denote re-supplement of media with drugs. f CX-5461 and BMN-673 cooperate in inhibiting clonogenic survival. Representative image of n = 6 biologically independent experiments for OVCAR8 and OVCAR8 RAD51C KO cells and n = 3 biological replicates for FT282 cells, mean ± SEM. g Clonogenic assay of OV90 cells. n = 3 technical replicates. Statistical analysis (in b, d and f) was performed using a two-sided one-way ANOVA, Tukey’s multiple comparisons test (adjusted p-values are shown). TEXT PRINTED IN THE PICTURE: (a) CX-5461: GI20 80 nM

**Q.** Which GI50 [1] does the source give for `Cc1cnc(CNC(=O)c2c(=O)c3ccc(N4CCCN(C)CC4)nc3n3c2sc2ccccc23)cn1` [CX-5461] here?
**A.** 0.363 µM

**Q.** And the “plasma concentrations range, lower end” value [2]?
**A.** 0.5841 µM

**Q.** What about the GI20 (OVCAR4 cells) of the same molecule?
**A.** 0.08 µM
